Patent US9198965B2 (priority 2008, dated 2015)
Like-named read-outs stand apart in the source and are kept apart here.

How the values were obtained:
[1] = system: H5N1 influenza virus; conditions: mouse, in vivo; cited from earlier work
[2] = system: VN/1203 virus; format: in vivo, Balb/C mice; conditions: day 15 and 28 post-vaccination; inactivated VN/1203; EB 200 μM
[3] = system: influenza viruses; conditions: in vitro; cited from earlier work
[4] = system: RAW 264.7 macrophages; experiment: Association of FITC-labeled virus with macrophages by flow cytometry; format: cell-based; conditions: virus treated with 10 μM EB; compared to 0 μM
[5] = system: VN/1203; experiment: Virus specific IgG ELISA after vaccination with inactivated VN/1203 (Example 3); format: in vivo, Balb/C mice; conditions: 28 days post-vaccination; EB at all concentrations (10 μM, 50 μM, 0.5 mM, 1 mM); i.m., boost day 15
[6] = system: PR/8 virus; format: in vivo, Balb/C mice; conditions: suboptimal dose PR/8 vaccine
[7] = system: VN/1203; format: in vivo, Balb/C mice; conditions: suboptimal dose vaccine
[8] = system: VN/1203; format: in vivo, Balb/C mice
[9] = system: VN/1203; experiment: Influenza-specific total IgG, IgG1, IgG2 ELISA after suboptimal dose VN/1203 vaccine (Example 5); parameters: species or system Balb/C mice; conditions: mouse, in vivo
[10] = system: PR/8 virus; experiment: Sedimentation density profiles (density gradient ultracentrifugation) of peptide-treated virus; parameters: species or system A/PuertoRico/8/34 (PR/8, H1N1); conditions: EB peptide-treated samples (10 μM, 30 μM)
[11] = system: PR/8 virus; experiment: Influenza-specific neutralizing antibodies in sera, suboptimal dose PR/8 vaccine (Example 6); format: in vivo, Balb/C mice; conditions: day 15 post-vaccination; pooled serum; values <40 negative
[12] = system: VN/1203 virus; experiment: Microneutralization assay of sera, suboptimal dose VN/1203 vaccine (Example 5); parameters: species or system Balb/C mice; conditions: mouse, in vivo
[13] = system: PR/8 virus; experiment: Splenocyte IFN-γ ELISpot assay, PR/8 vaccine (Example 8); format: in vivo, Balb/C mice; conditions: day 15 post-vaccination; inactivated PR/8; EB 50 μM or 200 μM
[14] = system: influenza virus; conditions: cited from earlier work

In the case of RRKKAAVALLPAVLLALLAP [EB], the “clinical signs of H5N1 influenza virus infection” value [1] is listed as “prevented clinical signs”, the survival [1] is listed as “increased survival” and the “IFN-γ levels (IFN-γ secreting splenocytes)” value [2] is listed as “increases”. For the same sequence, the “concentrations at which EB inhibits virus replication” value [3] was at least 10 µM, the “shift in macrophage association peak of FITC-PR/8” value [4] was “minimal shift” and the “virus specific IgG titers compared to inactivated virus alone or alum adjuvanated vaccine” value [5] was “increased”. For the same sequence, the survival rate ([6]; EB 50 μM) was 100%, the survival rate ([6]; EB 200 μM) was 100% and the weight loss ([7]; 200 μM EB, no boost) was “little to no weight loss”. The weight loss ([7]; 200 μM EB, with boost) was “little to no weight loss”, the “score for clinical signs of infection (0-3)” value (“score for clinical signs” below) ([7]; 200 μM EB, without boost) was 1 and the survival rate ([7]; EB 50 μM) was over 60%. The “score for clinical signs” value ([7]; peptide 200 μM, with boost) was 0, the “weight change compared to day 0 of challenge” value ([8]; […], EB 10 μM, 50 μM, 0.5 mM or 1 mM, alum 0.5 mg/ml) was “weight increase” and the “infectious virus in lungs (TCID50 on MDCK cells)” value ([8]; […], VN/1203 pretreated with 50 μM or greater amounts of EB) was “no detectable infectious virus”. For the same sequence, the “infectious virus in lungs (TCID50 on MDCK cells)” value ([8]; day 10, any of the groups vaccinated with inactivated VN/1203 and EB) was “no detectable infectious virus”, the “total IgG, IgG1, and IgG2 levels versus suboptimal dose of VN/1203 alone” value [9] was “the same” and the “HA activity as compared to virus alone” value [10] was “considerably lower”. For the same sequence, the “influenza-specific neutralizing antibody titers” value [11] was “negative”, the “virus neutralizing antibody titers (microneutralization)” value [12] was “negative” and the “IFN-γ levels (IFN-γ secreting splenocytes)” value [13] was “increases”. For the same sequence, the “influenza virus attachment to cells” value [14] was “inhibited”.

For “RRKKLPAVLLALLAP [SEQ ID NO: 4 peptide, derivative of EB retaining RRKK tag with 5 amino acid residues removed from the N-terminus]”, the weight loss ([7]; peptide 200 μM) was “around 20%” and the “score for clinical signs” value ([7]; peptide 200 μM, with boost) was 2.
